# Test: Effect of phosphate and borate buffers on chemical stability (% remaining, impurity profile), osmolality, pH and appearance of 25HC3S 30 mg/mL in 250 mg/mL HPBCD at 80°C and 60°C
# Format: physicochemical
# Method: A total of six 25HC3S formulations at 30 mg/mL in 250 mg/mL of 2-hydroxypropyl beta cyclodextrin (HPBCD) containing 10, 20, 50 and 100 mM phosphate buffers at pH 7.5 to 8.1 and 10 and 50 mM borate buffers at pH 9.4 were prepared for the stability study. The chemical stability (measured as % remaining of 25HC3S) and physical stability (osmolality, pH and appearance) of the formulations were monitored under accelerated conditions for up to 7 days at 80° C. and up to 29 days at 60° C.
# Two stock solutions of phosphate buffer at 100 and 200 mM at pH 7.4 and 7.3, respectively and one borate buffer at 100 mM at pH 9.3 were prepared (Tables 22A and 22B) and used for 250 mg/mL HPBCD vehicles preparation (Table 23).
# Approximately 1200 mg each of 25HC3S was weighed into 40 mL volumetric flasks and diluted to volume with the six HPBCD vehicles containing 10-100 mM phosphate buffers or 10 and 50 mM borate buffers, respectively (Table 24). The final concentration of 25HC3S was 30 mg/mL (wt/volume, without adjusting for API purity). Aliquots of 2 mL of each formulation were filled into 2 mL glass vials, stoppered and sealed for stability sample set-up at 60° C. and 80° C. to study the effect of phosphate buffer (pH 7.5-8.1) and borate buffer (pH 9.4) at various buffer concentrations on the stability of the HPBCD formulations (Table 26).
# A 0.5 mL of sample solution was transferred to a 25 mL volumetric flask and QS'ed with methanol/water=95/5 for 25HC3S concentration determination by HPLC. The % remaining of 25HC3S was calculated as follows: […]
# [1] = 250 mg/mL HPBCD, 50 mM borate, 80°C, day 0
# [2] = 250 mg/mL HPBCD, 50 mM borate, 80°C, day 1
# [3] = 250 mg/mL HPBCD, 50 mM borate, 80°C, day 2
# [4] = 250 mg/mL HPBCD, 50 mM borate, 80°C, day 3
# [5] = 250 mg/mL HPBCD, 50 mM borate, 80°C, day 7
# [6] = 250 mg/mL HPBCD, 50 mM borate, day 0
# [7] = 250 mg/mL HPBCD, 50 mM phosphate, 80°C, day 0
# [8] = 250 mg/mL HPBCD, 50 mM phosphate, 80°C, day 1
# [9] = 250 mg/mL HPBCD, 50 mM phosphate, 80°C, day 2
# [10] = 250 mg/mL HPBCD, 50 mM phosphate, 80°C, day 3
# [11] = 250 mg/mL HPBCD, 50 mM phosphate, 80°C, day 7
# [12] = 250 mg/mL HPBCD, 50 mM phosphate, day 0
# [13] = 250 mg/mL HPBCD, 100 mM phosphate, 80°C, day 0
# [14] = 250 mg/mL HPBCD, 100 mM phosphate, 80°C, day 1
# [15] = 250 mg/mL HPBCD, 100 mM phosphate, 80°C, day 2
# [16] = 250 mg/mL HPBCD, 100 mM phosphate, 80°C, day 3
# [17] = 250 mg/mL HPBCD, 100 mM phosphate, 80°C, day 7
# [18] = 250 mg/mL HPBCD, 100 mM phosphate, day 0
structure (smiles),measurement,setting,value
"C[C@H](CCCC(C)(C)O)[C@H]1CC[C@H]2[C@@H]3CC=C4C[C@@H](OS(=O)(=O)[O-])CC[C@]4(C)[C@H]3CC[C@]12C.[Na+] [25HC3S, 5-cholesten-3, 25-diol, 3-sulfate]",pH,"250 mg/mL HPBCD, 20 mM phosphate, day 0",7.81
same,pH,"250 mg/mL HPBCD, 50 mM borate, 60°C, 29 days",9.19
same,25HC3S concentration,[1],28.50 mg/mL
same,% Remaining of 25HC3S,[1],100.0%
same,25HC3S concentration,[2],26.78 mg/mL
same,% Remaining of 25HC3S,[2],94.0%
same,Osmolality,[2],527 mmol/kg
same,pH,[2],9.34
same,25HC3S concentration,[3],25.45 mg/mL
same,% Remaining of 25HC3S,[3],89.3%
same,Osmolality,[3],534 mmol/kg
same,pH,[3],9.28
same,25HC3S concentration,[4],24.05 mg/mL
same,% Remaining of 25HC3S,[4],84.4%
same,Osmolality,[4],535 mmol/kg
same,pH,[4],9.12
same,25HC3S concentration,[5],20.20 mg/mL
same,% Remaining of 25HC3S,[5],70.9%
same,Appearance,[5],brown clear solutions
same,Osmolality,[5],569 mmol/kg
same,pH,[5],8.92
same,Osmolality,[6],524 mmol/kg
same,pH,[6],9.40
same,pH,"250 mg/mL HPBCD, 50 mM phosphate, 60°C, 29 days",7.28
same,25HC3S concentration,[7],28.50 mg/mL
same,% Remaining of 25HC3S,[7],100.0%
same,25HC3S concentration,[8],27.13 mg/mL
same,% Remaining of 25HC3S,[8],95.2%
same,Osmolality,[8],427 mmol/kg
same,pH,[8],7.42
same,25HC3S concentration,[9],25.83 mg/mL
same,% Remaining of 25HC3S,[9],90.6%
same,Osmolality,[9],432 mmol/kg
same,pH,[9],7.29
same,25HC3S concentration,[10],24.65 mg/mL
same,% Remaining of 25HC3S,[10],86.5%
same,Osmolality,[10],423 mmol/kg
same,pH,[10],7.08
same,25HC3S concentration,[11],20.75 mg/mL
same,% Remaining of 25HC3S,[11],72.8%
same,Osmolality,[11],453 mmol/kg
same,pH,[11],6.73
same,Osmolality,[12],415 mmol/kg
same,pH,[12],7.63
same,pH,"250 mg/mL HPBCD, 100 mM phosphate, 60°C, 29 days",7.28
same,25HC3S concentration,[13],28.58 mg/mL
same,% Remaining of 25HC3S,[13],100.0%
same,25HC3S concentration,[14],27.10 mg/mL
same,% Remaining of 25HC3S,[14],94.8%
same,Osmolality,[14],589 mmol/kg
same,pH,[14],7.42
same,25HC3S concentration,[15],25.83 mg/mL
same,% Remaining of 25HC3S,[15],90.4%
same,Osmolality,[15],585 mmol/kg
same,pH,[15],7.33
same,25HC3S concentration,[16],24.65 mg/mL
same,% Remaining of 25HC3S,[16],86.2%
same,Osmolality,[16],589 mmol/kg
same,pH,[16],7.15
same,25HC3S concentration,[17],21.05 mg/mL
same,% Remaining of 25HC3S,[17],73.7%
same,Appearance,[17],brown clear solution
same,Osmolality,[17],616 mmol/kg
same,pH,[17],6.93
same,Osmolality,[18],573 mmol/kg
same,pH,[18],7.53
same,Appearance,"250 mg/mL HPBCD, 10, 20 and 50 mM phosphate, 80°C, up to 7 days",colorless clear solutions
same,appearance when removed from 80°C oven and cooled to room temperature,"10 or 50 mM borate formulations, 80°C up to 7 days",a white precipitate was observed
same,25HC3S,"60° C., day 0, Borate 10 mM",28.58 mg/mL
same,% Peak Area 25-Hydroxy Cholesterol at RRT = 3.67,"60° C., day 0, Borate 10 mM",0.0 % Peak Area
same,% Peak Area 25HC3S,"60° C., day 0, Borate 10 mM",99.7 % Peak Area
same,% Peak Area Major Thermal Degradant at RRT = 2.64,"60° C., day 0, Borate 10 mM",0.3 % Peak Area
same,% Remaining of 25HC3S,"60° C., day 0, Borate 10 mM",100.0%
same,Osmolality,"60° C., day 0, Borate 10 mM",316 mmol/kg
same,pH,"60° C., day 0, Borate 10 mM",9.36
same,25HC3S,"60° C., day 0, Borate 50 mM",28.50 mg/mL
same,% Peak Area 25-Hydroxy Cholesterol at RRT = 3.67,"60° C., day 0, Borate 50 mM",0.0 % Peak Area
same,% Peak Area 25HC3S,"60° C., day 0, Borate 50 mM",99.9 % Peak Area
same,% Peak Area Major Thermal Degradant at RRT = 2.64,"60° C., day 0, Borate 50 mM",0.2 % Peak Area
same,% Remaining of 25HC3S,"60° C., day 0, Borate 50 mM",100.0%
same,Osmolality,"60° C., day 0, Borate 50 mM",524 mmol/kg

# From patent publication US20230047788A1, “COMPOSITIONS COMPRISING 5-CHOLESTEN-3, 25-DIOL, 3-SULFATE (25HC3S) OR PHARMACEUTICALLY ACCEPTABLE SALT THEREOF AND AT LEAST ONE CYCLIC OLIGOSACCHARIDE” (Virginia Commonwealth University, priority 2016, published 2023)
